Experimental data: patent publication US6573084B1, “Process for the deacylation of cyclic lipopeptides” (Fujisawa Pharmaceutical Co., Ltd., priority 1996, dated 2003)
Read-outs that look alike come from different tables or passages of the source. Starred links: 1 amine or outer side, 2 acyl side, 3 side chain; linkers in the order of their positions; H or OH if unused. Positions of bridges follow the written chain, without caps; N, C: chain ends. Non-standard residues stand in square brackets, D forms with d. Residues, ends and D or L forms follow the SMILES beside them. ξ: configuration not given here. *: point of attachment. X1 = O=C(C(N[*:1])C(O)C(O)c1ccc(O)c(OS(=O)(=O)O)c1)[*:2]; ξOrn(4,5-diOH) = O=C(C(CC(O)C(O)N[*:3])N[*:1])[*:2]; X4 = CCCCCCCCCCCCCC(CC(=O)[*:1])O[*:2]; ξPro(3ξ-OH,4ξ-Me) = CC1CNC(C(=O)O)C1O; X2 = NC(=O)CC(O)C(N[*:1])C(=O)[*:2]; Palmitoyl = CCCCCCCCCCCCCCCC(=O)*; X3 = O=C(C1C(O)CCN1[*:1])[*:2]; Hyp = O=C(O)[CH]1C[CH](O)CN1; Orn = NCCC[CH](N)C(=O)O

Tests used:
[1] = tested on: acylase produced by Streptomyces sp. No. 6907; experiment: Deacylation of cyclic lipopeptide substrates by the acylase of Streptomyces sp. No. 6907 (HPLC, Lineweaver-Burk, substrate specificity); type: biochemical; conditions: for Vmax / Km: substrate of the acylase, fermentation broth of Streptomyces sp. No. 6907; for Km: read-out: Km value determined by the Lineweaver-Burk method
Method: To 700 μl of the fermentation broth of Streptomyces sp. No. 6907 obtained in Example 1-3 was added 100 μl of an aqueous solution of Substance FR901379 (100 mg/ml) (10 mg as Substance FR901379; 8.35 μmol) together with 100 μl of methanol and 100 μl of buffer (0.5 M potassium dihydrogen phosphate-disodium hydrogen phosphate buffer; pH 6.0), and the reaction was carried out at 30° C. for 30 minutes. The reaction was then stopped with 4% acetic acid and following addition of 2 ml of methanol, the mixture was filtered through a membrane filter (0.45 μm) to remove the macromolecular protein and other fraction and subjected to HPLC and the acylase activity of the skeletal substance FR179642 produced was monitored and assayed at 210 nm.
Using a variable wavelength UV detector (Shimadzu SPD-10A), a pump (Shimadzu LC-10AD) and an integrator (Shimadzu C-R6A) as the instrumentation, LiChrospher 100RP-18(e) (250 mm×4 mm i.d., particle diameter 5 μm(E.Merck)) as the stationary phase, and 3% acetonitrile/0.5% ammonium dihydrogen phosphate as the mobile phase, Substance FR179642 was eluted at a flow rate of 1 ml/min. The retention time of Substance FR179642 was about 6.3 minutes. The yield of Substance FR179642 as calculated from HPLC data was 560 μg (0.60 μmol).
(§1) To 100 μl of the fermentation broth of Streptomyces sp. No. 6907 obtained in Example 1-3 was added 100 μl of a dimethyl sulfoxide solution of Aculeacin A (100 mg/ml) (10 mg as Aculeacin A; 9.65 μmol) together with 500 μl of 1.2 M KCl-containing 500 mM potassium dihydrogen phosphate-disodium hydrogen phosphate buffer (pH 7.0) and 300 μl of water, and the reaction was carried out at 40° C. for 15 minutes. The reaction was then stopped with 1 ml of 4% acetic acid and following addition of 2 ml of methanol, the mixture was filtered through a membrane filter (0.45 μm) to remove the macromolecular protein and other fraction and subjected to HPLC and the acylase activity of the nuclear substance Aculeacin A produced was monitored at 210 nm and determined. Using a variable wavelength UV detector (Shimadzu SPD-10A), a pump (Shimadzu LC-10AD) and an integrator (Shimadzu C-R6A) as the instrumentation, LiChrospher 100RP-18(e) (250 mm×4 mm i.d., particle diameter 5 μm (E.Merck)) as the stationary phase, and 4% acetonitrile/1% ammonium dihydrogen phosphate as the mobile phase, nuclear substance Aculeacin A was eluted at a flow rate of 1 ml/min. The retention time of nuclear substance Aculeacin A was about 8.7 minutes. The yield of nuclear substance Aculeacin A as calculated from HPLC data was 370 μg (0.47 μmol).
as §1, with “Echinocandin B” for “Aculeacin A”, “Echinocandin B; 9.43” for “Aculeacin A; 9.65”, “monitored and assayed” for “monitored”, “nm.” for “nm and determined.”, “90” for “370”, “(0.11” for “(0.47”
To 2.0 ml of the fermentation broth of Streptomyces sp. […]

[2] = target: T1, Actinoplanes utahensis-derived acylase (Actinoplanes utahensis, UniProt P29958); experiment: Deacylation of Substance FR901469 by Actinoplanes utahensis acylase (HPLC of Substance FR181131); type: biochemical, Actinoplanes utahensis IF013244; conditions: produces Substance FR181131
T1 construct: To 20 ml of a fermentation broth of Actinoplanes utahensis IF013244; endogenous in cells; host or cells: Actinoplanes utahensis IF013244 (so in the source), whole fermentation broth
T1 sequence (P29958 230-786 limits assumed): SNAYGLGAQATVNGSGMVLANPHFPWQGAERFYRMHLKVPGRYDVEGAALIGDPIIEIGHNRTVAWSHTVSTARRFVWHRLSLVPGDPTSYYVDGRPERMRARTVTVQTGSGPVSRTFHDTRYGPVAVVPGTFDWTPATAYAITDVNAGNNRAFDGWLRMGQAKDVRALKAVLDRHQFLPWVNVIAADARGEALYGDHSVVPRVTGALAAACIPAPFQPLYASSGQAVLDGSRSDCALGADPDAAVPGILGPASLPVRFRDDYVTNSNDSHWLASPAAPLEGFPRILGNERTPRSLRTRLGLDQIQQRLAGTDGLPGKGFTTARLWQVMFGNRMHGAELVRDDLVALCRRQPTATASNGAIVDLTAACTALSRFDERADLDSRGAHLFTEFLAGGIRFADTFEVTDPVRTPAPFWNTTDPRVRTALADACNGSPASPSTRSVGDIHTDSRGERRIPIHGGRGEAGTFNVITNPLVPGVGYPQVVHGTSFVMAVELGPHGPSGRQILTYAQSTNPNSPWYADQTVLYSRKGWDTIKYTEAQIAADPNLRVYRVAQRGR
T1 sequence (P29958 35-214 limits assumed): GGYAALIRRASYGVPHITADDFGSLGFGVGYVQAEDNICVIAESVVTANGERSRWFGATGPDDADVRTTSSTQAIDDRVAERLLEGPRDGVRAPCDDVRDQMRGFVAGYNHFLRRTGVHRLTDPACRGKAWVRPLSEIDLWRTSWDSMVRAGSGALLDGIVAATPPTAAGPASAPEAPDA
Method: To 20 ml of a fermentation broth of Actinoplanes utahensis IF013244 as prepared by the procedure described in J. Antibiotics, Vol. 41, p. 1085-1092 ('88) was added 1 ml of an aqueous solution of Substance FR901469 (200 mg/ml) (0.2 g as Substance FR901469; 130 μmol) together with 2.9 g of disodium hydrogen phosphate and 60 ml of water, and the reaction was carried out at 60° C. for 24 hours. After completion of the reaction, the reaction mixture was filtered through a membrane filter (0.45 μm) to remove the high molecular protein and other fraction and purified by HPLC under monitoring for Substance FR181131 at 210 nm and the acylase activity was determined. Using a variable wavelength UV detector (Shimadzu SPD-10A), a pump (Shimadzu LC-10AD) and an integrator (Shimadzu C-R6A) as the instrumentation, YMC AM303 (250 mm×4 mm i.d., particle diameter 5 μm) as the stationary phase, and 12.5% acetonitrile/0.5% ammonium dihydrogen phosphate as the mobile phase, Substance FR181131 was eluted at a flow rate of 1 ml/min. The retention time of Substance FR181131 was about 7.3 minutes. The yield of Substance FR181131 as calculated from HPLC data was 80 mg (68 μmol).

Row | Molecule | Substrate specificity (catalytic action of the acylase on the substrate) [1] | Substrate specificity (catalytic action of the acylase on the substrate) ([1]; listed as FR901469) | Substrate specificity (catalytic action of the acylase on the substrate) [2] | Vmax [1] [U/mg-protein] | Km [1] [µM]
1 | CCCCCCCCCCCCCC1CC(=O)NC(C(C)O)C(=O)NC(C)C(=O)NC(Cc2ccc(O)cc2)C(=O)NC(C(C)C)C(=O)N2CC(O)CC2C(=O)NC(C(C)O)C(=O)NC(C(C)O)C(=O)N2CCC(O)C2C(=O)NC(C(O)CC(N)=O)C(=O)NCC(=O)NC(C(C)O)C(=O)NC(CCCN)C(=O)O1 (stereo not drawn) [Substance FR901469] (TAYV[Hyp]TT[X3][X2]GT[Orn]; linker N-C via X4; configuration not given here) | exerts no catalytic action | does not act upon | exerts a catalytic action | – | –
2 | Echinocandin B | acts as a catalyst | – | – | 7.85 | 146
3 | CCCCCCCCCCCCCCCC(=O)NC1CC(O)C(O)NC(=O)C2C(O)C(C)CN2C(=O)C(C(O)CC(N)=O)NC(=O)C(C(O)C(O)c2ccc(O)c(OS(=O)(=O)O)c2)NC(=O)C2CC(O)CN2C(=O)C(C(C)O)NC1=O (stereo not drawn) [Substance FR901379] (Palmitoyl-[ξOrn(4,5-diOH)]T[Hyp][X1][X2][ξPro(3ξ-OH,4ξ-Me)]; lactam 1-C; configuration not given here) | acts as a catalyst | – | – | 14.3 | 257
4 | Aculeacin A | acts as a catalyst | – | – | 16.8 | 279
